Measured values: patent publication US20160206688A1, “METHODS FOR TREATING BACTEREMIA AND OSTEOMYELITIS USING ORITAVANCIN” (THE MEDICINES COMPANY, priority 2013, published 2016)
In brackets after ≈: the same amount, converted by molar mass. Read-outs that look alike come from different tables or passages of the source.

What was measured:
[1] = Oritavancin concentrations (PK samples) in compassionate use subject; format: in vivo, human
Protocol: (§1) In response to a compassionate use request, oritavancin was administered to a subject having bacteremia.
(§2) Treatment as of Feb. 8, 2013: oritavancin (1200 mg IV, Q2D×3 times, then QW×5 times).
PK samples have been taken.
Attending physician kept the infusion time at 4 hours.
The concentrations are consistent with expectations from modeling (modeled oritavancin concentration-time profile is attached), with oritavancin attaining peaks of about 120-130 ug/mL and troughs of around 5-10 ug/mL for the loading phase and of around 5 ug/mL for the weekly dosing phase.

[2] = test system: E. faecium; assay: Broth microdilution MIC, US isolates 2011-2012, blood vs non-blood; format: cell-based
Protocol: (§3) 527 E. faecalis, 176 E. faecium, and 790 BHS (335 S. pyogenes and 455 S. agalactiae) clinical, single patient, non-consecutive isolates were collected in 2011-2012 from 46 sites geographically distributed across the United States. The MICs were determined by broth microdilution testing performed in accordance with CLSI M7 and M100 guidelines. From the resulting database, this analysis focused on the activities of ORI, vancomycin (VAN), daptomycin (DAP), and linezolid (LZD) according to specimen source.

[3] = test system: S. agalactiae; assay: as above; format: cell-based
Protocol: as §3

[4] = test system: S. pyogenes; assay: as above; format: cell-based
Protocol: as §3

[5] = test system: E. faecalis; assay: as above; format: cell-based
Protocol: as §3

[6] = test system: vancomycin-resistant enterococcal bacteremia; assay: Blood culture follow-up of compassionate use subject treated with oritavancin; format: in vivo, human
Protocol: as §1
(§4) The demographics of the subject included the following: […]; […]; […]; weight—190 lb; height—70 inches. The subject's medical history included the following: CAD s/p CABG 8/08 (SVG to OM1, SVG to PDA); severe AS s/p bioprosthetic AVR 8/08; lumbar discectomy and fusion February 2011, hardware removed Jan. 11, 2013; PVD S/p bilateral CEA 2010; CKD s/p renal artery stenting December 2011, Baseline Cr approx 3.0 s; HTN; CHF; HLD; mild pulmonary fibrosis; BPH; GERD; arthritis.
The subject was diagnosed with: 1) vancomycin-resistant enterococcal bacteremia with intolerance of other antibiotics; and 2) possible spinal osteomyelitis.
as §2
Last blood culture was Feb. 4, 2013 (negative). Attending physician will take blood sample for culture Feb. 11, 2013 and weekly thereafter.

[7] = test system: E. faecium; assay: Broth microdilution MIC, European bacteraemia isolates 2010-2012; format: cell-based, Enterococcus faecium
Procedure, shortened: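 Bacteraemia isolates from European, Israeli, Russian, Turkish and Ukrainian hospitals (2010-2012) tested centrally by CLSI M07-A9 broth microdilution in cation-adjusted Mueller-Hinton broth with 0.002% polysorbate-80. QC strains E. faecalis ATCC 29212 and S. aureus ATCC 29213; interpretation per CLSI M100-S23 and EUCAST 2013.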

[8] = test system: staphylococcal clinical isolates; assay: as above; format: cell-based, staphylococci
Protocol: A total of 2,904 clinical strains responsible for documented bacteremia among unique hospitalized patients in 38 hospitals in 11 European Union countries. Israel, Russia, Turkey and Ukraine were included in this study (2010-2012). Isolates were submitted to a central monitoring laboratory (JMI Laboratories, North Liberty. Iowa. USA), following previously established protocols. Bacterial species identification was performed by using an automated system (Vitek®2; bioMèrieux, Hazelwood, Mo., USA) or conventional biochemical algorithms, as required.
Isolates were tested for susceptibility by broth microdilution methods following the Clinical and Laboratory Standards Institute (CLSI; M07-A9, 2012) document. Susceptibility testing was performed in cation-adjusted Mueller-Hinton broth (CA-MHB) using dry-form panels manufactured by Thermo Fisher Scientific, formerly TREK Diagnostics Systems/Sensititre (Cleveland. Ohio, USA). These panels provide results equivalent to the CLSI-approved broth microdilution method supplemented with 0.002% polysorbate-80.
Quality assurance was performed by concurrent testing of CLSI-recommended (M100-S23, 2013) strains: E. faecalis ATCC 29212 and S. aureus ATCC 29213. Interpretation of comparator MIC results was in accordance with published CLSI (M100-S23) and European Committee on Antimicrobial Susceptibility Testing (EUCAST, 2013) criteria.

[9] = Tolerability and laboratory findings in compassionate use subject; format: in vivo, human
Protocol: as §1, §4, §2

[10] = test system: exponentially-growing S. aureus; settings: within 15 minutes to 2 hours; MSSA, MRSA, and VRSA; cited from earlier work
[11] = E. faecium (315), at ≦0.008 mg/L
[12] = E. faecium, VanA-phenotype (53), at ≦0.008 mg/L
[13] = E. faecium, Vancomycin-susceptible (257), at ≦0.008 mg/L
[14] = Enterococcus faecium, Table 1, E. faecium (315)
[15] = Enterococcus faecium, Table 1, E. faecium, VanA-phenotype (53)
[16] = Enterococcus faecium, Table 1, E. faecium, Vancomycin-susceptible (257)
[17] = Enterococcus faecium, Table 2, E. faecium Vancomycin-resistant (VanA-phenotype) (153)
[18] = Enterococcus faecium, Table 2, E. faecium Vancomycin-susceptible (257)
[19] = collection of staphylococcal clinical isolates, regardless of the methicillin susceptibility pattern

CN[C@H](CC(C)C)C(=O)N[C@H]1C(=O)N[C@@H](CC(N)=O)C(=O)N[C@H]2C(=O)N[C@H]3C(=O)N[C@H](C(=O)N[C@H](C(=O)O)c4cc(O)cc(O)c4-c4cc3ccc4O)[C@H](O[C@H]3C[C@](C)(N)[C@@H](O)[C@H](C)O3)c3ccc(c(Cl)c3)Oc3cc2cc(c3O[C@@H]2O[C@H](CO)[C@@H](O)[C@H](O)[C@H]2O[C@H]2C[C@](C)(NCc3ccc(-c4ccc(Cl)cc4)cc3)[C@@H](O)[C@H](C)O2)Oc2ccc(cc2Cl)[C@H]1O [Oritavancin, N-(4-(4-chlorophenyl)benzyl)A82846B]
peaks (oritavancin concentration) ([1]; 1200 mg IV, Q2D x3 then QW x5): 120 to 130 µg/mL
Oritavancin concentration ([1]; Peak - First Dose, 1200 mg IV): 114.793 µg/mL
Oritavancin concentration ([1]; Peak - Third Dose, 1200 mg IV): 133.581 µg/mL
Oritavancin concentration ([1]; Trough - First Dose, 1200 mg IV): 4.272 µg/mL
Oritavancin concentration ([1]; Trough - Second Dose, 1200 mg IV): 7.614 µg/mL
troughs (oritavancin concentration) ([1]; loading phase): 5 to 10 µg/mL
Oritavancin concentration ([1]; trough, fifth dose, 1200 mg IV): 4.584 µg/mL
Oritavancin concentration ([1]; trough, fourth dose, 1200 mg IV): 4.256 µg/mL
Oritavancin concentration ([1]; trough, sixth dose, 1200 mg IV): 4.489 µg/mL
Oritavancin concentration ([1]; trough, third dose, 1200 mg IV): 3.775 µg/mL
accumulation ([1]; weekly dosing phase): no evidence of substantial accumulation
troughs (oritavancin concentration) ([1]; weekly dosing phase): around 5 ug/mL
MIC90 ([2]; Blood, N 84): 0.12 µg/mL (≈ 0.0669 µM)
MIC90 ([2]; Non-Blood, N 92): 0.12 µg/mL (≈ 0.0669 µM)
MIC90 ([3]; Blood, N 100): 0.25 µg/mL (≈ 0.139 µM)
MIC90 ([3]; Non-Blood, N 355): 0.25 µg/mL (≈ 0.139 µM)
MIC90 ([4]; Blood, N 53): 0.25 µg/mL (≈ 0.139 µM)
MIC90 ([4]; Non-Blood, N 282): 0.25 µg/mL (≈ 0.139 µM)
MIC90 ([5]; Blood, N 116): 0.06 µg/mL (≈ 0.0335 µM)
MIC90 ([5]; Non-Blood, N 411): 0.06 µg/mL (≈ 0.0335 µM)
blood culture ([6]; Feb. 11, 2013 sample, after two 1200 mg IV doses): negative
blood culture ([6]; samples taken Feb. 19, 2013, culture duration is 5 days): so far negative
Number inhibited at MIC ([7]; E. faecium (315), at 0.015 mg/L): 25
Number inhibited at MIC ([7]; E. faecium (315), at 0.03 mg/L): 12
Number inhibited at MIC ([7]; E. faecium (315), at 0.06 mg/L): 6
Number inhibited at MIC ([7]; E. faecium (315), at 0.12 mg/L): 3
Number inhibited at MIC [7, 11]: 269
cumulative % inhibited at MIC [7, 11]: 85.4%
Number inhibited at MIC ([7]; E. faecium, VanA-phenotype (53), at 0.015 mg/L): 19
Number inhibited at MIC ([7]; E. faecium, VanA-phenotype (53), at 0.03 mg/L): 12
Number inhibited at MIC ([7]; E. faecium, VanA-phenotype (53), at 0.06 mg/L): 6
Number inhibited at MIC ([7]; E. faecium, VanA-phenotype (53), at 0.12 mg/L): 3
Number inhibited at MIC [7, 12]: 13
cumulative % inhibited at MIC [7, 12]: 24.5%
Number inhibited at MIC ([7]; E. faecium, Vancomycin-susceptible (257), at 0.015 mg/L): 6
Number inhibited at MIC [7, 13]: 251
cumulative % inhibited at MIC [7, 13]: 97.7%
MIC50 [7, 14]: ≤ 0.008 µg/mL
MIC90 [7, 14]: 0.015 µg/mL (≈ 0.00837 µM)
MIC50 [7, 15]: 0.015 µg/mL (≈ 0.00837 µM)
MIC90 [7, 15]: 0.06 µg/mL (≈ 0.0335 µM)
MIC50 [7, 16]: ≤ 0.008 µg/mL
MIC90 [7, 16]: ≤ 0.008 µg/mL
MIC50 [7, 17]: 0.015 µg/mL (≈ 0.00837 µM)
MIC90 [7, 17]: 0.06 µg/mL (≈ 0.0335 µM)
MIC50 [7, 18]: ≤ 0.0081 µg/mL
MIC90 [7, 18]: ≤ 0.008 µg/mL
MIC ([7]; Enterococcus faecium, read-out: MIC values): ≤ 0.008 µg/mL
inhibition at 0.015 µg/mL ([7]; Enterococcus faecium, read-out: cumulative % inhibited at MIC, E. faecium (315), at 0.015 mg/L): 93.3%
inhibition at 0.03 µg/mL ([7]; Enterococcus faecium, read-out: cumulative % inhibited at MIC, E. faecium (315), at 0.03 mg/L): 97.1%
inhibition at 0.06 µg/mL ([7]; Enterococcus faecium, read-out: cumulative % inhibited at MIC, E. faecium (315), at 0.06 mg/L): 99.1%
inhibition at 0.12 µg/mL ([7]; Enterococcus faecium, read-out: cumulative % inhibited at MIC, E. faecium (315), at 0.12 mg/L): 100%
inhibition at 0.015 µg/mL ([7]; Enterococcus faecium, read-out: cumulative % inhibited at MIC, E. faecium, VanA-phenotype (53), at 0.015 mg/L): 60.4%
inhibition at 0.03 µg/mL ([7]; Enterococcus faecium, read-out: cumulative % inhibited at MIC, E. faecium, VanA-phenotype (53), at 0.03 mg/L): 83%
inhibition at 0.06 µg/mL ([7]; Enterococcus faecium, read-out: cumulative % inhibited at MIC, E. faecium, VanA-phenotype (53), at 0.06 mg/L): 94.3%
inhibition at 0.12 µg/mL ([7]; Enterococcus faecium, read-out: cumulative % inhibited at MIC, E. faecium, VanA-phenotype (53), at 0.12 mg/L): 100%
inhibition at 0.015 µg/mL ([7]; Enterococcus faecium, read-out: cumulative % inhibited at MIC, E. faecium, Vancomycin-susceptible (257), at 0.015 mg/L): 100%
MIC Range ([7]; Table 2, E. faecium Vancomycin-resistant (VanA-phenotype) (153)): ≦0.008-0.12 mg/L
MIC Range ([7]; Table 2, E. faecium Vancomycin-susceptible (257)): ≦0.008-0.015 mg/L
MIC50 and MIC90 lower than daptomycin and linezolid ([7]; VanA-phenotype E. faecium): 32- to 64 fold
concentration inhibiting all strains ([7]; VanA-phenotype E. faecium strains): ≤ 0.12 mg/L
concentration inhibiting all strains ([7]; all E. faecium, including resistant subsets): ≤ 0.12 mg/L
activity relative to wild-type vancomycin-susceptible population ([7]; vancomycin-resistant (VanA-type) E. faecium strains): at least two-fold less active
concentration inhibiting all strains ([8]; all staphylococci, including resistant subsets): ≤ 0.25 mg/L
MIC50 [8, 19]: 0.03 µg/mL (≈ 0.0167 µM)
MICE [8, 19]: 0.06 mg/L
effect of methicillin-resistance phenotype on in vitro activity ([8]; staphylococci): not affected
creatinine ([9]; last post-dose, reported Feb. 11, 2013, pre-treatment levels 2.8 to 3): 3.1
tolerability ([9]; reported Feb. 20, 2013): tolerating oritavancin well without the adverse events from their previous antibiotics
creatinine ([9]; reported Feb. 20, 2013, went down from 3.1): 1.6
reduction (bactericidal activity) [10]: ≥ 3 log
